Values after ≈ are worked out from the molar mass of the structure shown.

The subject of series [1] is Mycolicibacter terrae. The series is described as follows: Antimycobacterial activity against Mycobacterium terrae after […] by microbroth dilution method. The format is functional.
Series [2] relates to Mycobacterium avium. The series can be described thus: Antimycobacterial activity against Mycobacterium avium after […] by microbroth dilution method. The format is functional.
Series [3] relates to Mycobacterium tuberculosis. The series is described as follows: Antimycobacterial activity against Mycobacterium tuberculosis H37Rv after […] by microbroth dilution method. Format: functional.
A short description of series [4]: Acute toxicity in po dosed mouse administered as single dose measured after 14 days. Format: organism-based. As to conditions: in vivo.
Series [5] can be described thus: Acute toxicity in po dosed mouse. The format is organism-based. Conditions: in vivo.

For `FC(F)(F)c1ccccc1-c1cncnc1`, the MIC in series [1], in series [2] and in series [3] was 27.7 µM (≈ 6.2 µg/mL) in each case.

In the case of `Fc1cc(F)cc(-c2cncnc2)c1`, the MIC in series [1], in series [2] and in series [3] was 3.64 µM (≈ 0.699 µg/mL) each time. Moreover, the LD50 at 336 h in series [4] was 300 mg/kg.

Turning to `Fc1ccc(-c2cncnc2)cc1`, the MIC in series [1], in series [2] and in series [3] was 71.8 µM (≈ 12.5 µg/mL) in each case.

As for `FC(F)(F)c1ccc(-c2cncnc2)cc1`, the MIC in series [1], in series [2] and in series [3] was 55.8 µM (≈ 12.5 µg/mL) throughout.

For the compound `FC(F)(F)c1ccc(-c2cncnc2)c(C(F)(F)F)c1`, the MIC in series [1], in series [2] and in series [3] was 42.8 µM (≈ 12.5 µg/mL) throughout.

Take `FC(F)(F)c1ccc(-c2cncnc2-c2ccco2)cc1`: the MIC in series [1], in series [2] and in series [3] was 43.1 µM (≈ 12.5 µg/mL) throughout.

`Fc1ccccc1-c1cncnc1`: the MIC in series [1], in series [2] and in series [3] was 71.8 µM (≈ 12.5 µg/mL) in each case.

Take `c1ccc(-c2cncnc2-c2cccs2)cc1`: the MIC in series [1], in series [2] and in series [3] was 26 µM (≈ 6.2 µg/mL) throughout.

Regarding `Fc1ccc(-c2cncnc2-c2cccs2)cc1`, the MIC in series [1] turned out to be 12.5 µM (≈ 3.2 µg/mL); in series [2] it was 12.5 µM (≈ 3.2 µg/mL); in series [3] it was 48.8 µM (≈ 12.5 µg/mL).

Turning to `Fc1ccccc1-c1cncnc1-c1cccs1`, the results for the MIC in series [1], in series [2] and in series [3] were 12.5 µM (≈ 3.2 µg/mL), 12.5 µM (≈ 3.2 µg/mL) and 48.8 µM (≈ 12.5 µg/mL), respectively.

Turning to `Fc1ccccc1-c1cncnc1-c1ccco1`, the MIC in series [1], in series [2] and in series [3] was 52 µM (≈ 12.5 µg/mL) each time.

As for `FC(F)(F)c1cccc(-c2cncnc2-c2ccco2)c1`, the MIC in series [1], in series [2] and in series [3] was 43.1 µM (≈ 12.5 µg/mL) in each case.

`c1ccc(-c2cncnc2)cc1`: the MIC in series [1], in series [2] and in series [3] was 80 µM (≈ 12.5 µg/mL) each time.

On to `Fc1cc(F)cc(-c2cncnc2-c2ccco2)c1`, for which the MIC in series [1], in series [2] and in series [3] was 24 µM (≈ 6.2 µg/mL) in each case.

For the compound `Fc1ccc(-c2cncnc2)c(F)c1`, the MIC in series [1], in series [2] and in series [3] was 16.1 µM (≈ 3.1 µg/mL) each time.

`NC(=O)c1cnccn1` [PYRAZINAMIDE]: the MIC in series [3] was found to be 102 µM (≈ 12.5 µg/mL).

For `FC(F)(F)c1cccc(-c2cncnc2)c1`, the MIC in series [1], in series [2] and in series [3] was 55.8 µM (≈ 12.5 µg/mL) in each case.

With `Fc1cccc(-c2cncnc2-c2cccs2)c1`, the MIC came to 12.5 µM (≈ 3.2 µg/mL) in series [1], 12.5 µM (≈ 3.2 µg/mL) in series [2] and 48.8 µM (≈ 12.5 µg/mL) in series [3].

For `Fc1cccc(-c2cncnc2-c2ccco2)c1`, the MIC in series [1], in series [2] and in series [3] was 6.24 µM (≈ 1.5 µg/mL) in each case.

Consider `FC(F)(F)c1ccccc1-c1cncnc1-c1cccs1`, for which the MIC in series [1], in series [2] and in series [3] was 20.2 µM (≈ 6.2 µg/mL) each time.

`FC(F)(F)c1ccc(-c2cncnc2-c2cccs2)cc1`: the MIC in series [1], in series [2] and in series [3] was 40.8 µM (≈ 12.5 µg/mL) each time.

For `FC(F)(F)c1cc(-c2cncnc2-c2ccco2)cc(C(F)(F)F)c1`, the minimum inhibitory concentration (MIC) in series [1], in series [2] and in series [3] was 8.65 µM (≈ 3.1 µg/mL) throughout.

Consider `FC(F)(F)c1cc(-c2cncnc2-c2cccs2)cc(C(F)(F)F)c1`, for which the MIC in series [1], in series [2] and in series [3] was 33.4 µM (≈ 12.5 µg/mL) each time.

As for `Fc1cc(F)cc(-c2cncnc2-c2cccs2)c1`, the MIC in series [1], in series [2] and in series [3] was 45.6 µM (≈ 12.5 µg/mL) throughout.

`Fc1ccc(-c2cncnc2-c2ccco2)c(F)c1`: the minimum inhibitory concentration (MIC) in series [1], in series [2] and in series [3] was 48.4 µM (≈ 12.5 µg/mL) each time.

In the case of `c1ccc(-c2cncnc2-c2ccco2)cc1`, the MIC in series [1], in series [2] and in series [3] was 1.57 µM (≈ 0.349 µg/mL) each time. Also, the LD50 at 336 h in series [4] was 150 mg/kg.

`FC(F)(F)c1ccc(-c2cncnc2-c2ccco2)c(C(F)(F)F)c1`: the minimum inhibitory concentration (MIC) amounted to 0.98 µM (≈ 0.351 µg/mL) in series [1], 1.95 µM (≈ 0.699 µg/mL) in series [2] and 1.95 µM (≈ 0.699 µg/mL) in series [3]. Further, in series [4], the LD50 at 336 h came to 600 mg/kg.

`Fc1ccc(-c2cncnc2-c2cccs2)c(F)c1`: the MIC in series [1], in series [2] and in series [3] was 45.6 µM (≈ 12.5 µg/mL) each time.

For the compound `NNC(=O)c1ccncc1` [ISONIAZID], the MIC in series [1], in series [2] and in series [3] was 0.73 µM (≈ 0.1 µg/mL) each time.

For the compound `FC(F)(F)c1cc(-c2cncnc2)cc(C(F)(F)F)c1`, the minimal inhibitory concentration (MIC) in series [1], in series [2] and in series [3] was 5.13 µM (≈ 1.5 µg/mL) in each case.

For `Fc1ccc(-c2cncnc2-c2ccco2)cc1`, the MIC in series [1], in series [2] and in series [3] was 52 µM (≈ 12.5 µg/mL) in each case.

Regarding `Fc1cccc(-c2cncnc2)c1`, the minimum inhibitory concentration (MIC) in series [1], in series [2] and in series [3] was 35.9 µM (≈ 6.25 µg/mL) throughout.

Take `FC(F)(F)c1ccccc1-c1cncnc1-c1ccco1`: the MIC in series [1], in series [2] and in series [3] was 43.1 µM (≈ 12.5 µg/mL) throughout.

In the case of `FC(F)(F)c1cccc(-c2cncnc2-c2cccs2)c1`, the MIC in series [1], in series [2] and in series [3] was 4.9 µM (≈ 1.5 µg/mL) in each case.

Take `CC1COc2c(N3CCN(C)CC3)c(F)cc3c(=O)c(C(=O)O)cn1c23` (stereo not given) [OFLOXACIN]: the MIC in series [1], in series [2] and in series [3] was 0.28 µM (≈ 0.101 µg/mL) each time. Moreover, the LD50 in series [5] turned out to be 5450 mg/kg.

Turning to `FC(F)(F)c1ccc(-c2cncnc2-c2cccs2)c(C(F)(F)F)c1`, the MIC in series [1], in series [2] and in series [3] was 16.6 µM (≈ 6.2 µg/mL) in each case.

Values taken from ChEMBL document CHEMBL3817833, “Synthesis and evaluation of antitubercular activity of fluorinated 5-aryl-4-(hetero)aryl substituted pyrimidines” (Bioorg Med Chem, 2016).
